PMC2864300, “Regulation of NOXO1 Activity through Reversible Interactions with p22^phox and NOXA1” (PLoS ONE, 2010)
Where a SMILES comes first, the peptide text is derived from it. Where no end group is shown, it is not given here.

Experiments:
[1] = molecular target: T1, tandem SH3 domains of human NOXO1 (Homo sapiens, UniProt Q8NFA2); test: ITC, binding to human NOXO1 tandem SH3 domains; settings: 18°C; for Kd: pH 7.4, titrated against tandem SH3 domains
T1 construct: was titrated against the tandem SH3 domains as well as against the individual SH3A and SH3B domains; GST (N, cleaved yes); made in house; host or cells: Escherichia coli BL21 STAR
T1 sequence (Q8NFA2 157-290 isoform Q8NFA2-4): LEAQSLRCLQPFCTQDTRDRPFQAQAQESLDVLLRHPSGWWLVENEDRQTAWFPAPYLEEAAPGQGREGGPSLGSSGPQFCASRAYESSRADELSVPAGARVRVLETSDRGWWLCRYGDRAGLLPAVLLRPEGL
Protocol: (§1) Complex formation between NOXO1, NOXA1 and p22^phox fragments or peptides were measured by isothermal titration calorimetry using a MicroCal VP-ITC calorimeter (MicroCal Inc., Northampton, USA). All proteins were dialysed against ITC buffer (150 mM NaCl, 1 mM DTT and 50 mM HEPES, pH 7.4) and performed at 18°C. All peptides were dissolved in ITC buffer. Typically, 20–40 µM of protein in the cell was titrated by stepwise injections of a total of 200–300 µM of the ligand. Heats of dilution were determined by titrating protein or peptide into ITC buffer and subtracted from the raw ITC data prior to analysis with the software, Origin version 7.0, assuming a single-site binding model. Data were averaged over three to five experiments.

human NOXA1 SH3 = molecular target: T2, human NOXA1 SH3 (Homo sapiens, UniProt Q86UR1); test: ITC, binding to human NOXA1 SH3; settings: 18°C, 150 mM NaCl, 1 mM DTT, 50 mM HEPES, pH 7.4, peptide in syringe, human NOXA1 SH3 in cell, averaged over three to five experiments, read-out: K (Kd)
T2 construct: GST (N, cleaved yes); made in house; host or cells: Escherichia coli BL21 STAR
T2 sequence (Q86UR1 399-458 limits assumed): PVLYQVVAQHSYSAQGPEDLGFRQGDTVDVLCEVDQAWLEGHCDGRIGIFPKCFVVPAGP
Protocol: as §1

[2] = tested on: interaction between NOXO1 and p22^phox; settings: cited from earlier work
Source text: In this study we provide evidence that the assembly of the NOX1 oxidase complex can be regulated through reversible protein-protein interactions. […] However, the inhibitory effect of the C-terminal tail is less pronounced in NOXO1 than in the homologous p47^phox subunit of the phagocytic oxidase, and may explain why the NOX1 system is capable of producing low levels of superoxide, in a constitutive ...

human NOX1 = settings: ref [32]–[34]; cited from earlier work
[3] = tested on: mouse proteins (NOX1 system); settings: ref [32]–[34]; cited from earlier work

Compound: TAPPPTVPTRPS [PeptideA-short]
- Kd [1]: ~50 µM
- Kd (human NOXA1 SH3): > 70 µM

Compound: CC[C@H](C)[C@H](NC(=O)[C@H](C)NC(=O)CNC(=O)[C@@H]1CCCN1C(=O)[C@H](CO)NC(=O)[C@@H]1CCCN1C(=O)[C@H](CCCNC(=N)N)NC(=O)[C@@H](NC(=O)[C@@H]1CCCN1C(=O)[C@@H](NC(=O)[C@@H](NC(=O)[C@@H]1CCCN1C(=O)[C@@H]1CCCN1C(=O)[C@@H]1CCCN1C(=O)[C@H](C)NC(=O)[C@@H](N)[C@@H](C)O)[C@@H](C)O)C(C)C)[C@@H](C)O)C(=O)N[C@@H](CCC(N)=O)C(=O)N[C@@H](CO)C(=O)N[C@@H](CCCNC(=N)N)C(=O)N[C@@H](CS)C(=O)N[C@@H](CS)C(=O)N[C@H](C(=O)N[C@H](C(=O)N[C@H](C(=O)N[C@@H](CCCNC(=N)N)C(=O)N[C@@H](CCCNC(=N)N)C(=O)N[C@@H](C)C(=O)N[C@@H](CC(C)C)C(=O)N[C@@H](CCC(=O)O)C(=O)O)[C@@H](C)O)C(C)C)[C@@H](C)O [PeptideA] (H-TAPPPTVPTRPSPGAIQSRCCTVTRRALE-OH)
- Kd [1]: ~50 µM

Compound: ERRPRRQGRPRG [peptide corresponding to basic region, residues 347–359, of C-terminal tail of human NOXO1]
- binding to the tandem SH3 domains (qualitative) ([1]; pH 7.4, data not shown): no binding was detected

Compound: CCCCC/C=C\C/C=C\C/C=C\C/C=C\CCCC(=O)O [arachidonic acid]
- effect on interaction between NOXO1 and p22^phox [2]: could increase the interaction between NOXO1 and p22^phox

Compound: CCCCCCCCCCCCCC(=O)O[C@@H]1[C@@H](C)[C@@]2(O)[C@@H](C=C(CO)C[C@]3(O)C(=O)C(C)=C[C@@H]23)[C@@H]2C(C)(C)[C@]12OC(C)=O [PMA]
- superoxide production by human NOX1 (human NOX1): increased
- superoxide production with the mouse proteins [3]: a similar increase could not be observed with the mouse proteins
